# Results published in PubChem BioAssay (NCI).
#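 48-hour exposure; five concentrations; linearly interpolated endpoints. Abbreviation: GI50, concentration required for 50% inhibition of growth. TGI denotes the concentration required for complete inhibition of growth.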
# Columns and labels:
# Test in all cases: growth of human tumour cells (NCI), 48 h
# HL-60(TB) leukemia = system: HL-60(TB) leukemia
# UACC-62 melanoma = system: UACC-62 melanoma
# NCI-H522 lung = system: NCI-H522 lung
# HCT-15 colon = system: HCT-15 colon
# ACHN renal = system: ACHN renal
# M14 melanoma = system: M14 melanoma
# OVCAR-8 ovarian = system: OVCAR-8 ovarian
# SK-MEL-2 melanoma = system: SK-MEL-2 melanoma
# MDA-MB-435 = system: MDA-MB-435
# PC-3 prostate = system: PC-3 prostate
SMILES,TGI (HL-60(TB) leukemia) [µM],TGI (UACC-62 melanoma) [µM],TGI (NCI-H522 lung) [µM],TGI (HCT-15 colon) [µM],TGI (ACHN renal) [µM],TGI (M14 melanoma) [µM],TGI (OVCAR-8 ovarian) [µM],TGI (SK-MEL-2 melanoma) [µM],TGI (MDA-MB-435) [µM],TGI (PC-3 prostate) [µM],GI50 (UACC-62 melanoma) [µM],GI50 (NCI-H522 lung) [µM],GI50 (SK-MEL-2 melanoma) [µM],GI50 (HCT-15 colon) [µM],GI50 (ACHN renal) [µM],GI50 (MDA-MB-435) [µM],GI50 (M14 melanoma) [µM],GI50 (PC-3 prostate) [µM],GI50 (OVCAR-8 ovarian) [µM],GI50 (HL-60(TB) leukemia) [µM]
Cc1oc2c(C)c3oc(=O)cc(C)c3cc2c1CN1C(=O)C2OCCOCCOCCOCCOCCO[C@H]2C1=O (stereo partly drawn),> 100,> 100,> 100,> 100,> 100,> 100,> 100,,,,,,,,,,,,,
O=C(CC(=O)C1=CNc2ccccc2S1)C(=O)Nc1ccc(Cl)cc1,49.6,> 50,> 50,> 50,> 50,> 50,> 50,> 50,,,,,,,,,,,,
COC1OC(CBr)C(OC(=O)c2ccccc2)C(O)C1Br (stereo not drawn),> 100,> 100,> 100,> 100,,> 100,> 100,,,,,,,,,,,,,
COc1c(O)cc2oc(-c3ccc(O)cc3)cc(=O)c2c1O,> 100,68.1,> 100,> 100,> 100,> 100,,> 100,> 100,> 100,,,,,,,,,,
OCC(O)C(Cl)CCl (stereo not drawn),> 100,> 100,> 100,> 100,> 100,> 100,> 100,,,> 100,,,,,,,,,,
CN1CCN(CCOc2ccc(-c3cnc4c(-c5ccc(C(F)(F)F)cc5)cnn4c3)cc2)CC1,,3.13,3.16,2.31,2.91,3.25,3.46,3.52,3.02,2.86,1.69,1.55,1.82,1.02,1.57,1.61,1.7,1.43,1.75,
O=C(O/C(=C(/N=Nc1ccccc1)c1ccccc1)c1ccccc1)c1ccccc1,,> 100,> 100,> 100,> 100,,> 100,> 100,,,,,,,,,,,,
O=c1cc(-c2ccccc2F)[nH]c2ccc(N3CCCC3)cc12,,> 100,,,> 100,> 100,,> 100,,> 100,< 0.001,< 0.001,,< 0.001,,,< 0.001,,< 0.001,< 0.001
O=C1C2C3C=C4c5ccccc5N(c5ccccc5)C4(C2C(=O)N1c1ccc(Cl)cc1)[C@H]1C(=O)N(c2ccc(Cl)cc2)C(=O)[C@@H]31 (stereo partly drawn),> 100,> 100,> 100,> 100,,> 100,> 100,> 100,,,,,,,,,,,,
COCC(O)Cn1ccnc1[N+](=O)[O-] (stereo not drawn),> 100,,> 100,> 100,> 100,> 100,> 100,> 100,,,,,,,,,,,,
COc1cccc(-c2nn(-c3ccccc3)cc2-c2ccnc(NCCCNC(=O)Nc3ccc(Cl)c(Cl)c3)c2)c1,5.81,4,,6.66,22.4,4.45,13.4,4.07,4.82,22.4,1.91,,1.92,2.4,4.23,2.01,1.97,3.96,3.22,2.51
COc1ccc(/C=C/C(=O)c2ccc(O)c(CN3CCN(c4cc5c(cc4F)c(=O)c(C(=O)O)cn5C4CC4)CC3)c2)cc1,,> 100,28.7,> 100,17.9,> 100,> 100,21,> 100,> 100,1.32,1.98,2.87,2.22,2.18,2.17,1.13,1.39,0.644,
NC(=O)c1ccccc1Nc1ccc2nnc(-c3ccncc3)n2n1,39.6,22.2,18,22.4,20.7,26.5,31.5,,26.9,30.3,7.15,4.46,,5.48,6.32,7.1,11.1,16.2,8.07,14.3
CCn1cc(C(=O)N/N=C/c2ccccc2)c(=O)c2cc(F)c(N3CCNC(C)C3)c(F)c21 (stereo not drawn),,,,2.82,3.12,3.26,,,3.36,3.01,,,,1.45,1.73,1.91,1.78,1.6,,
Cc1ccc(SSc2ccc(C)cc2C(=O)O)c(C(=O)O)c1,> 100,> 100,> 100,,> 100,,> 100,> 100,,,,,,,,,,,,
C1=CC=C2NCCCCCCCNC3=CC=CC=CC3=NCCCCCCCN=C2C=C1,> 100,,> 100,> 100,> 100,,> 100,> 100,,,,,,,,,,,,
O=C1C(N2CC2)=C(N2CC2)C(=O)C(N2CC2)=C1N1CC1,8.64,1.13,2.21,0.901,0.351,0.199,6.99,,2.3,21.1,0.101,0.432,,0.15,< 0.0179,0.706,< 0.0211,0.863,0.344,0.201
COc1ccc(-c2nc(/C=N/Nc3cc(C)nc4ccc(Cl)cc34)c(C)o2)cc1,,3.37,,3.06,3.2,3.36,3.91,24.1,3.07,3.17,1.8,,10.9,1.52,1.81,1.65,1.74,1.66,1.89,
O=c1[nH]nc2ccccc2c1Cc1ccccc1,,> 100,,> 100,> 100,> 100,> 100,> 100,,,,,,,,,,,,
